Experimental data published in publication PMC10974743, “Design, Synthesis, and Biological Evaluation of Novel Phenoxy Acetic Acid Derivatives as Selective COX-2 Inhibitors Coupled with Comprehensive Bio-Pharmacological Inquiry, Histopathological Profiling, and Toxicological Scrutiny” (Molecules, 2024).
Like-named read-outs stand apart in the source and are kept apart here.

Tests used:
ovine COX-1 = target: T1, ovine COX-1 (Ovis aries, UniProt P05979); assay: In vitro COX-1 inhibition assay (Cayman colorimetric COX inhibitor screening kit)
T1 sequence (P05979 25-600): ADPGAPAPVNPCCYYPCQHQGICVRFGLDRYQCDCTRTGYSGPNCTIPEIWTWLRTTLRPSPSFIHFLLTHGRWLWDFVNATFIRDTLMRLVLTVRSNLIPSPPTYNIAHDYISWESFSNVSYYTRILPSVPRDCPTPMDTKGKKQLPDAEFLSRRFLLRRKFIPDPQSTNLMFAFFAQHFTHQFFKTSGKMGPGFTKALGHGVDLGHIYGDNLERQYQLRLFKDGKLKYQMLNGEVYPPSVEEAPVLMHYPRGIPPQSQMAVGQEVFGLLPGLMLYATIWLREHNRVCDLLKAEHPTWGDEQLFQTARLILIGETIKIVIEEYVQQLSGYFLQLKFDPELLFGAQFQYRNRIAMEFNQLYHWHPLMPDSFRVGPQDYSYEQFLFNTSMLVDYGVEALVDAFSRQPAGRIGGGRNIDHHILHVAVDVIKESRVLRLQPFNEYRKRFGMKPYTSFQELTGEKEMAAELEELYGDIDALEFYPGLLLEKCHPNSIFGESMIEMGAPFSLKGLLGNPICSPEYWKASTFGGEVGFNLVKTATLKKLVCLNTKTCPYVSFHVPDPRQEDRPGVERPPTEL
Experimental: (§1) The in vitro enzyme assays were performed at the Biochemistry Department, Cairo
(§2) General Hospital, Egypt. Cayman® colorimetric COX (ovine) inhibitor screening assay kit (Item
(§3) enzymes in presence of all newly compounds. Generally, this kit is dependent on the reductive
(§4) reaction of COX. A specific antibody binds to PGH2 produced by COX and is further quantified
(§5) by the ELISA technique as previously reported. After that, the selectivity index (SI) was calculated
as the following equation:
𝐒𝐞𝐥𝐞𝐜𝐭𝐢𝐯𝐢𝐭𝐲 𝐢𝐧𝐝𝐞𝐱 (𝐒𝐈) = 𝐈𝐂₅₀𝐨𝐟 𝐂𝐎𝐗 − 𝟏

human COX-2 = target: T2, human COX-2 (Homo sapiens, UniProt P35354); assay: In vitro COX-2 inhibition assay (Cayman colorimetric COX inhibitor screening kit); settings: for SI (COX-2 selectivity index): COX-1 (IC50)/COX-2 (IC50); for IC50: COX-2 IC50, mean ± SEM, n = 3
T2 sequence (P35354 18-604): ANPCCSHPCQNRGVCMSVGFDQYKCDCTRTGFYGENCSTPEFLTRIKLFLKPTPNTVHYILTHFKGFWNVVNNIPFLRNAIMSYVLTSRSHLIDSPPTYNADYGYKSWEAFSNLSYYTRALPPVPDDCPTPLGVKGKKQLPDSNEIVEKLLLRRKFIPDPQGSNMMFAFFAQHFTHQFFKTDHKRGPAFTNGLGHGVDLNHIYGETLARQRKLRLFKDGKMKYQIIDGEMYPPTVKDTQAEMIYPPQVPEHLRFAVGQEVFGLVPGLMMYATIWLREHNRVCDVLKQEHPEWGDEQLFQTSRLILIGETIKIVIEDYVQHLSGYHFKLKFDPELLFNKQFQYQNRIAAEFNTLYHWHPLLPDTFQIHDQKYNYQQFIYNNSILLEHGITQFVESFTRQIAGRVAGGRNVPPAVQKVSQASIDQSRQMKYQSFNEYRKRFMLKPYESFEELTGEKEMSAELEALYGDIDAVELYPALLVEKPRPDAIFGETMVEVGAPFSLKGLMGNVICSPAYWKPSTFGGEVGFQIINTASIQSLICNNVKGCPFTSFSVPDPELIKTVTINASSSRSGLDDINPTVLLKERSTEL
Experimental: as §1, §2, §3, §4, §5
as the following equation:
𝐒𝐞𝐥𝐞𝐜𝐭𝐢𝐯𝐢𝐭𝐲 𝐢𝐧𝐝𝐞𝐱 (𝐒𝐈) = 𝐈𝐂₅₀𝐨𝐟 𝐂𝐎𝐗 − 𝟏

[1] = system: carrageenan-induced paw edema; assay: Carrageenan paw edema test (paw thickness, paw weight); settings: for Paw thickness difference: oral; for Paw thickness difference / Paw Weight Increase: mean ± SD, n = 6; for Percentage of inhibition of paw thickness: vs carrageenan group; for Paw Weight Increase: right vs left paw, after 5 h; as to all read-outs here: test concentration or dose not given here
COX-2 = settings: cited from earlier work

| Compound | melting point [°C] | IC50 (ovine COX-1) [nM] | SI (COX-2 selectivity index) (human COX-2) | IC50 (human COX-2) [nM] | Paw thickness difference ([1]; 1st h after carrageenan) [mm] | Percentage of inhibition of paw thickness ([1]; 1st h) [%] | Paw thickness difference ([1]; 2nd h after carrageenan) [mm] | Percentage of inhibition of paw thickness ([1]; 2nd h) [%] | Paw thickness difference ([1]; 3rd h after carrageenan) [mm] | Percentage of inhibition of paw thickness ([1]; 3rd h) [%] | Paw thickness difference ([1]; 4th h after carrageenan) [mm] | Percentage of inhibition of paw thickness ([1]; 4th h) [%] | Paw thickness difference ([1]; 5th h after carrageenan) [mm] | Percentage of inhibition of paw thickness ([1]; 5th h) [%] | Paw Weight Increase [1] | Selectivity for COX-2 over COX-1 (COX-2) [fold] | IC50 (COX-2; earlier work of the authors) [nM] | IC50 (COX-2) [nM] |
| --- | --- | --- | --- | --- | --- | --- | --- | --- | --- | --- | --- | --- | --- | --- | --- | --- | --- | --- |
| O=C(O)COc1ccccc1C=NNC(=O)c1ccccc1 [Compound 5a, 2-(2-((2-Benzoylhydrazineylidene)methyl)phenoxy)acetic acid] | 209 to 211 | 10000 ± 100 | 10.31 | 970 ± 60 |  |  |  |  |  |  |  |  |  |  |  |  |  |  |
| Cc1ccc(C(=O)NN=Cc2ccccc2OCC(=O)O)cc1 [Compound 5b, 2-(2-((2-(4-Methylbenzoyl)hydrazineylidene)methyl)phenoxy)acetic acid] | 222 to 223 | 7500 ± 200 | 20.27 | 370 ± 60 |  |  |  |  |  |  |  |  |  |  |  |  |  |  |
| O=C(O)COc1ccccc1C=NNC(=O)c1ccc(Cl)cc1 [Compound 5c, 2-(2-((2-(4-Chlorobenzoyl)hydrazineylidene)methyl)phenoxy)acetic acid] | 241 to 243 | 14500 ± 200 | 111.53 | 130 ± 60 |  |  |  |  |  |  |  |  |  |  |  |  |  |  |
| O=C(O)COc1ccc(Br)cc1C=NNC(=O)c1ccccc1 [Compound 5d, 2-(2-((2-Benzoylhydrazineylidene)methyl)-4-bromophenoxy)acetic acid] |  | 9030 ± 150 | 112.87 | 80 ± 10 | 1.37 ± 0.13 | 30.57 | 2.76 ± 0.24 | 16.19 | 3.56 ± 0.33 | 15.67 | 3.7 ± 0.32 | 26.75 | 3.90 ± 0.41 | 26.51 | 76.92 ± 3.89 ^abcd % |  |  |  |
| Cc1ccc(C(=O)NN=Cc2cc(Br)ccc2OCC(=O)O)cc1 [Compound 5e, 2-(4-Bromo-2-((2-(4-methylbenzoyl)hydrazineylidene)methyl)phenoxy)acetic acid] |  | 7000 ± 200 | 100.00 | 70 ± 10 | 1.57 ± 0.4 | 20.35 | 2.53 ± 0.48 | 23.28 | 3.43 ± 0.10 | 18.71 | 3.55 ± 0.11 | 29.59 | 3.68 ± 0.15 | 30.72 | 47.55 ± 2.41 ^abcd % |  |  |  |
| O=C(O)COc1ccccc1C=NNC(=O)Cc1ccccc1 [Compound 7a, 2-(2-((2-(2-Phenylacetyl)hydrazineylidene)methyl)phenoxy)acetic acid] | 214 to 215 | 10000 ± 200 | 76.92 | 130 ± 60 |  |  |  |  |  |  |  |  |  |  |  |  |  |  |
| NS(=O)(=O)c1ccc(-n2nc(C(F)(F)F)cc2-c2ccc(Br)cc2)cc1 [SC-558] |  |  |  |  |  |  |  |  |  |  |  |  |  |  |  | 1900 |  |  |
| O=C(O)COc1ccc(/C=C2\SC(N3N=C(c4ccc(Cl)cc4)CC3c3ccccc3)=NC2=O)cc1 (stereo not drawn) [XIV] |  |  |  |  |  |  |  |  |  |  |  |  |  |  |  |  | 60 |  |
| Cc1ccc(-c2ncc(Cl)cc2-c2ccc(S(C)(=O)=O)cc2)cn1 [etoricoxib] |  |  |  |  |  |  |  |  |  |  |  |  |  |  |  |  |  | 5000 |
| CS(=O)(=O)c1ccc(C2=C(c3ccccc3)C(=O)OC2)cc1 [rofecoxib] |  |  |  |  |  |  |  |  |  |  |  |  |  |  |  |  |  | 500 |

Second part, led by results:

| melting point [°C] | IC50 (ovine COX-1) [nM] | SI (COX-2 selectivity index) (human COX-2) | IC50 (human COX-2) [nM] | Compound | Paw thickness difference ([1]; 1st h after carrageenan) [mm] | Percentage of inhibition of paw thickness ([1]; 1st h) [%] | Paw thickness difference ([1]; 2nd h after carrageenan) [mm] | Percentage of inhibition of paw thickness ([1]; 2nd h) [%] | Paw thickness difference ([1]; 3rd h after carrageenan) [mm] | Percentage of inhibition of paw thickness ([1]; 3rd h) [%] | Paw thickness difference ([1]; 4th h after carrageenan) [mm] | Percentage of inhibition of paw thickness ([1]; 4th h) [%] | Paw thickness difference ([1]; 5th h after carrageenan) [mm] | Percentage of inhibition of paw thickness ([1]; 5th h) [%] | Paw Weight Increase [1] | Selectivity for COX-2 over COX-1 (COX-2) [fold] | IC50 (COX-2; earlier work of the authors) [nM] | IC50 (COX-2) [nM] |
| --- | --- | --- | --- | --- | --- | --- | --- | --- | --- | --- | --- | --- | --- | --- | --- | --- | --- | --- |
| 221 to 222 | 9500 ± 200 | 19.00 | 500 ± 100 | O=C(O)COc1ccccc1/C=N/NC(=O)CNc1ccccc1 [Compound 10a] |  |  |  |  |  |  |  |  |  |  |  |  |  |  |
| 236 to 238 | 4970 ± 60 | 15.06 | 330 ± 60 | Cc1ccc(NCC(=O)NN=Cc2ccccc2OCC(=O)O)cc1 [Compound 10b, 2-(2-((2-(4-Tolylglycyl)hydrazineylidene)methyl)phenoxy)acetic acid] |  |  |  |  |  |  |  |  |  |  |  |  |  |  |
|  | 5570 ± 120 | 79.57 | 70 ± 10 | O=C(O)COc1ccccc1C=NNC(=O)CNc1ccc(Cl)cc1 [Compound 10c, 2-(2-((2-((4-Chlorophenyl)glycyl)hydrazineylidene)methyl)phenoxy)acetic acid] | 1.65 ± 0.22 | 16.47 | 2.64 ± 0.33 | 19.99 | 3.11 ± 0.29 | 26.25 | 3.81 ± 0.19 | 24.47 | 4.22 ± 0.28 | 20.54 | 69.01 ± 4.61 ^abcd % |  |  |  |
|  | 7000 ± 200 | 87.50 | 80 ± 10 | O=C(O)COc1ccc(Br)cc1/C=N/NC(=O)CNc1ccccc1 [Compound 10d] | 1.55 ± 0.41 | 21.37 | 2.60 ± 0.21 | 21.15 | 2.93 ± 0.37 | 30.56 | 3.44 ± 0.37 | 31.87 | 3.73 ± 0.34 | 29.71 | 60.8 ± 4.27 ^abcd % |  |  |  |
|  | 4070 ± 120 | 67.83 | 60 ± 10 | Cc1ccc(NCC(=O)NN=Cc2cc(Br)ccc2OCC(=O)O)cc1 [Compound 10e, 2-(4-Bromo-2-((2-(p-tolylglycyl)hydrazineylidene)methyl)phenoxy)aceticacid] | 1.79 ± 0.39 | 9.38 | 3.00 ± 0.30 | 9.01 | 3.58 ± 0.17 | 15.28 | 3.98 ± 0.26 | 21.24 | 4.17 ± 0.24 | 21.42 | 64.95 ± 6.79 ^abcd % |  |  |  |
|  | 4970 ± 60 | 55.22 | 90 ± 10 | O=C(O)COc1ccc(Br)cc1C=NNC(=O)CNc1ccc(Cl)cc1 [Compound 10f, 2-(4-Bromo-2-((2-((4 chlorophenyl)glycyl)hydrazineylidene)methyl)phenoxy) acetic acid] | 1.77 ± 0.27 | 10.39 | 2.85 ± 0.46 | 13.51 | 3.24 ± 0.46 | 23.17 | 3.63 ± 0.48 | 28.04 | 3.78 ± 0.51 | 28.80 | 59.16 ± 2.72 ^abcd % |  |  |  |
| 210 to 211 | 8430 ± 120 | 36.65 | 230 ± 60 | O=C(O)COc1ccccc1C=NNC(=O)CNC(=O)c1ccccc1 [Compound 13a, 2-(2-((2-(Benzoylglycyl)hydrazineylidene)methyl)phenoxy)acetic acid] |  |  |  |  |  |  |  |  |  |  |  |  |  |  |
| 248 to 250 | 9930 ± 120 | 76.38 | 130 ± 60 | O=C(O)COc1ccc(Br)cc1C=NNC(=O)CNC(=O)c1ccccc1 [Compound 13b, 2-(2-((2-(Benzoylglycyl)hydrazineylidene)methyl)-4-bromophenoxy)acetic acid] |  |  |  |  |  |  |  |  |  |  |  |  |  |  |
